The text below walks through data of ChEMBL document CHEMBL1158873, “Chemistry of Fijian Plants. 13. 1 Floribundal, a Nonglycosidic Bisiridoid, and Six Novel Fatty Esters of -Amyrin from Scaevola floribunda” (J Nat Prod, 1997).

This series concerns Artemia. Nature of the series: Toxicity against brine shrimp. Format: organism-based. To be noted: in vivo.

On to `COC(=O)C[C@@H]1C(C(=O)O[C@H]2C[C@@H]3C(C(=O)OC)=CO[C@@H](O)[C@@H]3[C@H]2C)=CO[C@@H](C)[C@H]1C=O` [FLORIBUNDAL], for which the Activity result is given as “Non-toxic”.
